Reference: PMC11811597, “Phenomics‐Based Discovery of Novel Orthosteric Choline Kinase Inhibitors” (Angewandte Chemie (International Ed. in English), 2025)

Columns and labels:
EHMT1 = molecular target: T1, EHMT1 (Homo sapiens, UniProt Q9H9B1); experiment: Competitive affinity-based chemoproteomics (UNC0965 matrix), PBMC cell extract; format: binding; settings: 20 µM competitor; for FC vs DMSO (log2 competition), EHMT1: n=2
T1 construct: endogenous in cells; host or cells: PBMC from healthy blood donors, cell extract
T1 sequence (Q9H9B1 1-1298): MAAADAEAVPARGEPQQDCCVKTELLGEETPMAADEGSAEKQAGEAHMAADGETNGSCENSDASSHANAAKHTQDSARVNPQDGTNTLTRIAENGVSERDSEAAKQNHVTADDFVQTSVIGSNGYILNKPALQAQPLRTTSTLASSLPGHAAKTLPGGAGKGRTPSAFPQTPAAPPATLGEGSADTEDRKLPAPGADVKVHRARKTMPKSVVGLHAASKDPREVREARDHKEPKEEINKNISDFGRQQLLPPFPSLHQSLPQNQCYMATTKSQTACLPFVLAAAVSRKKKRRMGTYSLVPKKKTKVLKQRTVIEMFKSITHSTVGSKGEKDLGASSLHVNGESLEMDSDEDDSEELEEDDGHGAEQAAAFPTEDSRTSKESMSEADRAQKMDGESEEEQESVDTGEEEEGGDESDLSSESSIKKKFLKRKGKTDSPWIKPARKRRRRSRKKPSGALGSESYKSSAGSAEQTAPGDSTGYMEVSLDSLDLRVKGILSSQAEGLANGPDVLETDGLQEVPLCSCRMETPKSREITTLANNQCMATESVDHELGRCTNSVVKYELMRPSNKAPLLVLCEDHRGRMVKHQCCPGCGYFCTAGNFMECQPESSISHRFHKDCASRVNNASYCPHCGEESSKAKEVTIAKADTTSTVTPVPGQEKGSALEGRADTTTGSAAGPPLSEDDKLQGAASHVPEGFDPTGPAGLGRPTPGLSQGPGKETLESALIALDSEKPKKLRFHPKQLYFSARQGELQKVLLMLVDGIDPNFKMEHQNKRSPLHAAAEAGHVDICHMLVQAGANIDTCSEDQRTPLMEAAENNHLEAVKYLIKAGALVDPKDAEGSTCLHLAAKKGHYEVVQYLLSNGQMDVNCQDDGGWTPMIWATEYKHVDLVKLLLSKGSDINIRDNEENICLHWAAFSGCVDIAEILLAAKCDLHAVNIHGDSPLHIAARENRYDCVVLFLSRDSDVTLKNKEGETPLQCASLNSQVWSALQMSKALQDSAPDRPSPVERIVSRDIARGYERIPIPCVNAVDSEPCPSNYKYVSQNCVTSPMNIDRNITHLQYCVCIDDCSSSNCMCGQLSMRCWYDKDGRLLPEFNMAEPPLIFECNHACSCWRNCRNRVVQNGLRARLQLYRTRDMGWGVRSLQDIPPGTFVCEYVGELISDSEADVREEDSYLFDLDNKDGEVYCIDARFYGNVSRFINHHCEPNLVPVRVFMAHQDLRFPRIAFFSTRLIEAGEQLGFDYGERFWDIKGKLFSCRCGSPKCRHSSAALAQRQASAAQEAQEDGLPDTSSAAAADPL
Procedure: (§1) described.[2] Lysates were precleared with bead slurry (100 μL) for 30 min at 4 °C and then treated with UNC0638 or UNC0737 (20 μM) or DMSO control for 30 min at 4 °C followed by incubation with affinity matrix for 2 h at 4 °C. Affinity matrices were washed with buffer A (5 mL) and proteins eluted with 100 μL of 2x Laemmli sample buffer, 100 mM DTT, in PBS and heating for 10 min at 90 °C.
(§2) Eluents (70 µL) were diluted in 0.1 M Tris (pH 7.8) to 200 µL, reduced with 5 mM DTT for 30 min at RT, and alkylated with 20 mM iodoacetamide for 30 min at RT in the dark. Proteins were precipitated by sequential addition of MeOH (600 µL), CHCl3 (150 µL) and H2O (450 µL), pelleted (17,000 × g, 5 min), washed with further MeOH (2 × 600 µL), and re-pelleted. Air dried pellets were resuspended in 50 μL 6 M urea (pH 7.8) by vortexing and then diluted with 250 μL H2O before adding 1 µg trypsin for overnight incubation at 37 °C. The digests were acidified with FA (1% v/v final concentration), desalted using SOLA HRP SPE Cartridges (Thermo Fisher), eluted with 69% v/v MeCN, 0.1% v/v FA in H2O (600 μL) and dried in vacuo. Dried peptides were stored at -20 °C before resuspension in 2% v/v MeCN, 0.1% v/v FA in H2O (20 μL) for LC-MS/MS analysis.
(§3) LC-MS/MS Data Acquisition
(§4) Digested samples were analysed by nano-UPLC–MS/MS using a Dionex Ultimate 3000 nano UPLC fitted with an EASY spray column (75 μm × 500 mm, 2 μm particle size, Thermo Scientific), coupled to an Orbitrap Q Exactive instrument. A 60 min gradient of 0.1% (v/v) formic acid in 5 % (v/v) DMSO to 0.1% (v/v) formic acid with 35% (v/v) acetonitrile in 5 % (v/v) DMSO at a flow rate of 250 nL min−1 was used. The instrument was operated in a data-dependant mode, with survey scans acquired at a resolution of 70,000 at 200 m/z and the 15 most abundant precursors selected for HCD fragmentation with an AGC target of […] ions.
(§5) Raw data was processed using MaxQuant[3] version 2.0.1.0 and the reference complete human proteome FASTA file (UniProt, downloaded 05.08.21). Label Free Quantification (LFQ) and Match Between Runs were selected; Cysteine carbamidomethylation was selected as a fixed modification, and methionine oxidation and asparagine deamidation as variable modifications. Default settings for identification and quantification were used. Specifically, a minimum peptide length of 7, a maximum of 2 missed cleavage sites, and a maximum of 5 labelled amino acids per peptide were allowed.
(§6) Through selection of the ‘trypsin/P’ general setting, peptide bond cleavage at arginine or lysine (followed by any amino acid) was considered during in silico digest of the reference proteome. The allowed precursor and fragment ion mass tolerances were 4.5 ppm and 20 ppm, respectively. Peptides and proteins were identified utilizing a 0.01 false discovery rate, with “unique and razor peptides” […]
(§7) mode selected for both identification and quantification of proteins (razor peptides are uniquely assigned to protein groups and not to individual proteins).

CPSF6 = molecular target: T2, CPSF6 (Homo sapiens, UniProt Q16630); experiment: as above; format: binding; settings: 20 µM competitor, n=2
T2 construct: endogenous in cells; host or cells: PBMC from healthy blood donors, cell extract
Procedure: as §1, §2, §3, §4, §5, §6, §7

T2 sequence (Q16630 whole entry): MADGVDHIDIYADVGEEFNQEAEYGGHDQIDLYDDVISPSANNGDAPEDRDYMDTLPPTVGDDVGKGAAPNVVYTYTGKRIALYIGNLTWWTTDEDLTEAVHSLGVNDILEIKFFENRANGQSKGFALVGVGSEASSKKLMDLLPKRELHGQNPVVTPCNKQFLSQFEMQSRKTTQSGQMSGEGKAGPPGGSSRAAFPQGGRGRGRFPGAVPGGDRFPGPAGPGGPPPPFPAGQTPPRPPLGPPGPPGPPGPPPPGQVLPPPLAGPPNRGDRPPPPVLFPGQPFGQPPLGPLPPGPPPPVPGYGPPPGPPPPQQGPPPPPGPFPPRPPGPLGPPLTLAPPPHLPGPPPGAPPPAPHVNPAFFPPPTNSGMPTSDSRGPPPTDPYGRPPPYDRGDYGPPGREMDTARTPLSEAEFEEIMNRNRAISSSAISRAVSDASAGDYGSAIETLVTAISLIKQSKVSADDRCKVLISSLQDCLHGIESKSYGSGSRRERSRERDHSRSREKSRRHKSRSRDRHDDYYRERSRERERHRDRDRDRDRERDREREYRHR

SMILES | EHMT1 (GLP) binding to the matrix (EHMT1) | FC vs DMSO (log2 competition), EHMT1 (EHMT1) | FC vs DMSO (log2 competition), CPSF6 (CPSF6)
COc1cc2c(NC3CCN(C(C)C)CC3)nc(C3CCCCC3)nc2cc1OCCCN1CCCC1 [UNC0638] | reduced binding to the matrix | -2.05 | -1.787
COc1cc2c(N(C)C3CCN(C(C)C)CC3)nc(C3CCCCC3)nc2cc1OCCCN1CCCC1 [UNC0737] | – | 0.1524 | -0.1868
